In PubChem BioAssay (NCI) one finds TGI and GI50 data, which are given here for 17 compounds.

Holding throughout (experiment): NCI tumour cell line growth inhibition, 48 h
In assay [1] the test system is 786-0 renal.
Assay [2] deals with HCT-116 colon.
Assay [3] has as its system K-562 leukemia.
Assay [4] concerns NCI-H226 lung.
Assay [5] relates to NCI-H23 lung.
For assay [6], the system named is SF-268 CNS.
In assay [7] the test system is SN12C renal.
The subject of assay [8] is SNB-19 CNS.
Assay [9] relates to TK-10 renal.
Assay [10] concerns UACC-62 melanoma.

Values joined by “and” are separate entries in the source; they are usually repeats but may differ in a detail not shown here. Equal entries are not always repeated.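 Exposure lasted 48 hours, with cells grown in 96-well plates and compounds tested at five concentrations. The concentration for 50% growth inhibition is given as GI50. The concentration for full growth arrest is given as TGI.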 Bounds are passed on as bounds.

With `C/C(CC(=O)Nc1ccc(Cl)c(Cl)c1)=N/NC(=O)C[n+]1ccccc1`, the TGI in assay [1], in [2], in [3], in assay [4], in assay [5] and in assay [6] was more than 100 µM throughout. Also, the TGI in assay [7], in assay [8], in assay [9] and in assay [10] was more than 100 µM each time.
With `COc1cc(-c2nc(Nc3nc4ccccc4[nH]3)nc(N)c2C#N)cc(OC)c1OC`, the GI50 was 20.2 µM in assay [1]; 4.52 µM in assay [2]; 8.45 µM in assay [3]; 32.7 µM in assay [4]; 12.2 µM in [5]; more than 53.2 µM in [6]. The GI50 is 29.1 µM in assay [7], 21 µM in assay [8], 30.7 µM in assay [9] and 4.65 µM in [10]. Also, the TGI in [1] is more than 100 µM; in assay [2], 25.8 µM; in assay [3], more than 100 µM; in assay [4], more than 89.3 µM; in [5] it was 40.2 µM; in assay [6] it was more than 100 µM. The TGI was more than 100 µM in assay [7], more than 100 µM in assay [8], more than 100 µM in [9] and more than 59.7 µM in assay [10].
Regarding `COC(=O)Nc1nc2ccc(Oc3ccc(NC(=O)Nc4cccc(C(=O)O)c4)cc3)cc2[nH]1`, the GI50 is 10.5 µM in [1]; 8.82 µM in [2]; 6.51 µM in [3]; 5.2 µM in [4]; 9.64 µM in assay [5]; 11.3 µM in [6]. Besides, the GI50 was 11.9 µM in assay [7], 9.36 µM in assay [8], more than 23.1 µM in assay [9] and 5.35 µM in [10]. Further, the TGI in assay [1], in assay [2], in [3], in assay [4], in [5] and in [6] was more than 25 µM in each case. Besides, the TGI in assay [7], in assay [8], in [9] and in assay [10] was more than 25 µM in each case.
As to `Oc1ccccc1-c1nn(CNc2cccc(Cl)c2)c(=S)o1`, the GI50 in assay [1] was 67.3 µM; in assay [2] it was 25.3 µM; in [3], 38.4 µM; in [4], 54.2 µM; in assay [5], 22.8 µM; in assay [6], 59.4 µM. In addition, the GI50 in assay [7] is more than 100 µM; in [8], more than 100 µM; in [9], 13.1 µM; in assay [10] it was 41.5 µM. Further, the TGI is more than 100 µM in assay [1]; more than 100 µM in assay [2]; more than 100 µM in assay [3]; more than 100 µM in assay [4]; 71.8 µM in assay [5]; more than 100 µM in [6]. Further, the TGI in assay [7] is more than 100 µM; in assay [8], more than 100 µM; in assay [9] it was 86.3 µM; in [10], more than 100 µM.
Regarding `CCOC(=O)C12CCCC1(O)N(NC(=O)c1ccccc1)C(C)=C2C(=O)OC` (centres undefined), the TGI in [1], in assay [2], in [3], in assay [4], in assay [5] and in assay [6] was more than 100 µM each time. For the same compound, the TGI in [7], in assay [8], in assay [9] and in assay [10] was more than 100 µM in each case.
With `Cn1cc(-c2nc(-c3c[nH]c4ncccc34)cs2)c2cc(F)ccc21`, the GI50 in assay [1] is 2.82 µM; in [2], 2.56 µM; in assay [3], 2.19 µM; in [4], 4.63 µM; in assay [5] it was 2.4 µM; in assay [6] it was 3.32 µM. Besides, the GI50 in assay [7] was 3.47 µM; in assay [8], 3.82 µM; in assay [9], 2.78 µM; in assay [10], 3.65 µM. The TGI was 7.64 µM in [1]; 7.22 µM in assay [2]; more than 22.9 µM in assay [3]; 25.9 µM in assay [4]; 10.1 µM in assay [5]; 22.5 µM in assay [6]. Besides, the TGI is 15.3 µM in assay [7], 20 µM in assay [8], 15.3 µM in assay [9] and 17.2 µM in [10].
For `O=C1NN(c2ccc(C(=O)O)cc2)C(=O)/C1=C\c1ccc([N+](=O)[O-])o1`, the GI50 in assay [1] was more than 100 µM; in assay [2] it was 20.8 µM; in assay [3] it was 27.3 µM; in assay [4], more than 100 µM; in [5], 75.1 µM; in [6], 61.2 µM. Further, the GI50 in [7] was 58.8 µM; in assay [8], more than 100 µM; in assay [9], 25.5 µM; in [10] it was 62 µM. The TGI in assay [1] was more than 100 µM; in [2], 42.8 µM; in assay [3], 72.1 µM; in assay [4], more than 100 µM; in assay [5], more than 100 µM; in [6] it was more than 100 µM. The TGI in assay [7] was more than 100 µM; in [8], more than 100 µM; in [9] it was 66.8 µM; in assay [10] it was more than 100 µM.
Take `CCC[CH2][Sn]1([CH2]CCC)[O]C(=O)c2cc(I)cc(I)c2[O]1`: the GI50 in assay [1] is 1.47 µM; in assay [2] it was 1.42 µM; in [3], 0.284 µM; in [4], 1.75 µM; in [5], 1.18 µM; in [6], 1.29 µM. The GI50 in assay [7] is 1.42 µM; in [8] it was 1.27 µM; in assay [9] it was 1.25 µM; in assay [10] it was 1.01 µM. The TGI in [1] was determined as 2.8 µM; in [2], 2.72 µM; in assay [3], 1.25 µM; in assay [4], 3.29 µM; in [5], 2.9 µM; in [6], 2.89 µM. Besides, the TGI came to 2.96 µM in assay [7], 2.55 µM in [8], 2.52 µM in assay [9] and 2.17 µM in [10].
With `COc1ccc2c(c1)C(=O)/C(=C/c1cccc(OCC(=O)Nc3nc4c(s3)CCCC4)c1)O2`, the GI50 was 0.15 µM in assay [1]; 1.13 µM in assay [2]; 1 µM in assay [3]; 11.3 µM in assay [4]; 0.636 µM in [5]; 0.314 µM in assay [6]. The GI50 in [7] was 1.63 µM; in assay [8], 13.9 µM; in [9], 0.45 µM; in [10], 5.23 µM. Moreover, the TGI in assay [1] is 0.346 µM; in assay [2] it was 2.34 µM; in [3] it was more than 23 µM; in [4] it was 42.1 µM; in assay [5], 5.62 µM; in assay [6] it was 1.08 µM. In addition, the TGI is 6.81 µM in assay [7], 30.4 µM in assay [8], 0.934 µM in assay [9] and 18.4 µM in [10].
On to `COc1cc(O)c2c(O)c3c(c4c2c1[C@]1(C4)C(C)=CCCC1(C)C)[C@H](O)[C@@]1(O)CC(=O)C(C(N)=O)=C(O)[C@@]1(O)C3=O`, for which the TGI in assay [1] worked out at 1.62 µM; in assay [2], 1.3 µM; in [3], 1.52 µM; in assay [4], 0.951 µM; in assay [5], 1.34 µM; in [6], 1.81 µM. The TGI amounted to 1.25 µM in [7], 1.94 µM in [8], 1.18 µM in assay [9] and 1.95 µM in [10].
Consider `Cn1cncc1[C@@](N)(c1ccc(Cl)cc1)c1ccc2c(c1)c(-c1cccc(Cl)c1)cc(=O)n2C`, for which the GI50 in assay [1] was 3.08 µM; in assay [2], 1.48 µM; in assay [3] it was 0.669 µM; in [4] it was 5.98 µM; in [5], 2.64 µM; in assay [6] it was 3.01 µM. The GI50 in [7] is 2.48 µM; in assay [8], 5.61 µM; in [9], 2.57 µM; in [10], 0.42 µM. The TGI in [1] was 14 µM; in assay [2], 7.57 µM; in [3] it was 6.16 µM; in assay [4], 21.5 µM; in assay [5], 14.4 µM; in assay [6], 14.7 µM. Further, the TGI in assay [7] stood at 14.9 µM; in assay [8], 19.7 µM; in [9], 10.8 µM; in assay [10], 12.5 µM.
On to `COc1ccc2nc(-c3cc(-c4cc(OC)c(OC)c(OC)c4)n[nH]3)[nH]c2c1`, for which the GI50 is 2.92 µM in [1]; 1.81 µM in assay [2]; 2.01 µM in [3]; 0.462 µM in assay [4]; 1.34 µM in assay [5]; 2.74 µM in [6]. Also, the GI50 is 2.06 µM in assay [7], 2.98 µM in assay [8], 2.21 µM in assay [9] and 1.12 µM in [10]. Also, the TGI in assay [1] was 12.8 µM; in assay [2], 6.65 µM; in assay [3], more than 100 µM; in [4] it was 2.98 µM; in [5] it was 4.91 µM; in assay [6] it was 9.38 µM. Also, the TGI in assay [7] stood at 8.45 µM; in assay [8], 14.1 µM; in assay [9], 7.58 µM; in assay [10], 2.52 µM.
As for `Cc1nn(-c2nc3ccccc3s2)c(C)c1Oc1ccccc1O`, the GI50 in [1] was 14.6 µM; in [2], 2.03 µM; in assay [3], 1.94 µM; in [4], 9.07 µM; in assay [5], 12.3 µM; in assay [6], 5.31 µM. In addition, the GI50 in [7] was 6.92 µM; in [8] it was 6.77 µM; in assay [9], 13.9 µM; in assay [10], 2.91 µM. For the same compound, the TGI in assay [1] was determined as 27.7 µM; in [2] it was 15.5 µM; in [3] it was 19.4 µM; in [4], 26 µM; in [5] it was 26.3 µM; in [6], 20.8 µM. Moreover, the TGI in assay [7] was 22 µM; in assay [8], 20.3 µM; in assay [9], 31.9 µM; in [10], 18.1 µM.
Take `CC1=NN(c2ccccc2)C(=O)C1N=Nc1ccc([As](=O)(O)O)c(O)c1` (centres undefined): the TGI in [1], in assay [2], in assay [3], in assay [4], in assay [5] and in assay [6] was more than 100 µM throughout. Further, the TGI in assay [7], in assay [8], in assay [9] and in assay [10] was more than 100 µM throughout.
On to `Cc1c(Cl)ccc2c1NC(=O)C2(O)C(C(=O)c1ccccc1)c1ccccc1` (centres undefined), for which the TGI in [1] is more than 100 µM; in assay [2], more than 100 µM; in [3], more than 100 µM; in [4], more than 100 µM; in assay [5], 42.2 µM; in assay [6] it was more than 100 µM. The TGI in [7] was more than 100 µM; in [8], more than 100 µM; in assay [9], more than 100 µM; in assay [10] it was 46 µM.
In the case of `COc1ccc(C(=O)C(c2ccc(OC)cc2)C2(O)C(=O)Nc3ccccc32)cc1` (centres undefined), the TGI in [1], in assay [2], in assay [3], in assay [4], in assay [5] and in assay [6] was more than 100 µM throughout. In addition, the TGI in [7], in assay [8], in [9] and in assay [10] was more than 100 µM each time.
For `CCC(C)(C)C(=O)O[C@H]1C[C@@H](C)C=C2C=C[C@H](C)[C@H](CC[C@@H]3C[C@@H](O)CC(=O)O3)[C@H]21`, the GI50 in assay [1] is 3.13 µM; in assay [2], 1.25 µM; in assay [3] it was 5.53 µM; in assay [4] it was 2.32 µM; in assay [5] it was 1.79 µM; in [6] it was 0.715 µM. Besides, the GI50 in [7] was 0.949 µM; in assay [8], 3.13 µM; in assay [9], 5.38 µM; in assay [10], 0.578 µM. In addition, the TGI in assay [1] was 11.2 µM and > 30 µM; in assay [2] it was 5.43 µM and 6.98 µM; in assay [3], 22.8 µM and > 30 µM; in [4], 9.27 µM; in [5] it was 15.3 µM and 3.55 µM; in assay [6] it was 15.4 µM. In addition, the TGI in [7] was 16.5 µM and > 30 µM; in [8], 19.9 µM; in assay [9], 18.2 µM.
